Experimental data taken from patent US7232912B2, “Indazole compounds, pharmaceutical compositions, and methods for mediating or inhibiting cell proliferation” (Agouron Pharmaceuticals, Inc., priority 2000, dated 2007).
Read-outs that look alike come from different tables or passages of the source.

Legend:
CDK2/cyclin A = molecular target: T1, CDK2/cyclin A (Homo sapiens, UniProt P24941); experiment: Inhibition of CDK2/Cyclin A Retinoblastoma Kinase Activity; assay type: biochemical; conditions: apparent Ki
T1 construct: made in house; host or cells: CDK2: insect cells (baculovirus); cyclin A: E. coli
Procedure: (§1) Cyclin-dependent kinase activity was measured by quantifying the enzyme-catalyzed, time-dependent incorporation of radioactive phosphate from [^32P]ATP or [^33P]ATP into a protein substrate. Unless noted otherwise, assays were performed in 96-well plates in a total volume of 50 μL, in the presence of 10 mM HEPES (N-[2-hydroxyethyl]piperazine-N′-[2-ethanesulfonic acid]) (pH 7.4), 10 mM MgCl2, 25 μM adenosine triphosphate (ATP), 1 mg/mL ovalbumin, 5 μg/mL leupeptin, 1 mM dithiothreitol, 10 mM beta-glycerophosphate, 0.1 mM sodium vanadate, 1 mM sodium fluoride, 2.5 mM ethylene glycol-bis(β-aminoethyl ethKer)-N,N,N′N′-tetraacetic acid (EGTA), 2% (v/v) dimethylsulfoxide, and 0.03–0.4 μCi [^32/33P]ATP per reaction. Reactions were initiated with appropriate enzyme, incubated at 30° C., and terminated after 20 minutes by the addition of ethylenediaminetetraacetic acid (EDTA) to 250 mM. The phosphorylated substrate was then captured on a nitrocellulose or phosphocellulose membrane using a 96-well filtration manifold, and unincorporated radioactivity was removed by repeated washing with 0.85% phosphoric acid. Radioactivity was quantified by exposing the dried membranes to a phosphorimager.
(§2) Apparent Ki values were measured by assaying enzyme activity in the presence of different inhibitor compound concentrations and subtracting the background radioactivity measured in the absence of enzyme. Inhibition data were fit to an equation for competitive inhibition using Kaleidagraph (Synergy Software), or were fit to an equation for competitive tight-binding inhibition using the software KineTic (BioKin, Ltd.).
Inhibition of CDK2/Cyclin A Retinoblastoma Kinase Activity
CDK2 was purified using published methodology (Rosenblatt et al., “Purification and Crystallization of Human Cyclin-dependent Kinase 2,” J. Mol. Biol., vol. 230, 1993, pp. 1317–1319) from insect cells that had been infected with a baculovirus expression vector. […] A complex of CDK2 and proteolyzed cyclin A was prepared and purified by gel filtration. The substrate for this assay was the same Rb substrate fragment used for the CDK4 assays, and the methodology of the CDK2/cyclin A and the CDK4/cyclin D3 assays was essentially the same, except that CDK2 was present at 150 nM or 5 nM. Ki values were measured as described above.

HCT 116 cell line = experiment: Inhibition of Cell Growth (MTT tetrazolium salt assay); assay type: cell-based; conditions: Homo sapiens
Procedure: Inhibition of Cell Growth: Assessment of Cytotoxicity
Inhibition of cell growth was measured using the tetrazolium salt assay, which is based on the ability of viable cells to reduce 3-(4,5-dimethylthiazol-2-yl)-2,5-[2H]-diphenyltetrazolium bromide (MTT) to formazan (Mossman, Journal of Immunological Methods, vol. 65 (1983), pp. 55–58). The water-insoluble purple formazan product was then detected spectrophotometrically. The HCT 116 cell line was grown in 96-well plates. Cells were plated in the appropriate medium at a volume of 135 μl/well in McCoy's 5A Medium. Plates were incubated for four hours before addition of inhibitor compounds. Different concentrations of inhibitor compounds were added in 0.5% (v/v) dimethylsulfoxide (15 μL/well), and cells were incubated at 37° C. (5% CO2) for four to six days (depending on cell type). At the end of the incubation, MTT was added to a final concentration of 0.2 mg/mL, and cells were incubated for 4 hours more at 37° C. After centrifugation of the plates and removal of medium, the absorbance of the formazan (solubilized in dimethylsulfoxide) was measured at 540 nm. The concentration of inhibitor compound causing 50% inhibition of growth was determined from the linear portion of a semi-log plot of inhibitor concentration versus percentage inhibition. All results were compared to control cells treated only with 0.5% (v/v) dimethylsulfoxide.

CDK4/cyclin D3 = CDK4/cyclin D3 (Homo sapiens, UniProt P11802); experiment: Inhibition of CDK4/Cyclin D Retinoblastoma Kinase Activity; assay type: biochemical; conditions: apparent Ki
Procedure: as §1, §2
Inhibition of CDK4/Cyclin D Retinoblastoma Kinase Activity
A complex of human CDK4 and cyclin D3, or a complex of human CDK4 and genetically truncated (1–264) cyclin D3, was purified using traditional biochemical chromatographic techniques from insect cells that had been co-infected with the corresponding baculovirus expression vectors (see e.g., Meijer and Kim, “Chemical Inhibitors of Cyclin-Dependent Kinases,” Methods in Enzymol,. vol. 283 (1997), pp. 113–128.). The enzyme complex (5 or 50 nM) was assayed with 0.3–0.5 μg of purified recombinant retinoblastoma protein fragment (Rb) as a substrate. The engineered Rb fragment (residues 386–928 of the native retinoblastoma protein; 62.3 kDa) contains the majority of the phosphorylation sites found in the native 106-kDa protein, as well as a tag of six histidine residues for ease of purification. Phosphorylated Rb substrate was captured by microfiltration on a nitrocellulose membrane and quantified using a phosphorimager as described above. For measurement of tight-binding inhibitors, the enzyme complex concentration was lowered to 5 nM, and the assay duration was extended to 60 minutes, during which the time-dependence of product formation was linear.

FGFR1 tyrosine kinase = molecular target: T2, FGFR1 tyrosine kinase (Homo sapiens, UniProt P11362, C488A/C584S/L457V); experiment: Inhibition of phosphorylated FGF receptor tyrosine kinase activity; assay type: biochemical; conditions: read-out: FGF % Inhib. at 1 μM
T2 construct: the cytosolic domain of FGFR1 tyrosine kinase (amino acids 456–766); made in house; host or cells: Sf9 insect cells (baculovirus)
Procedure: Inhibition of Phosphorylated FGF Receptor and LCK Tyrosine Kinase Activity
Cloning, expression and purification of the cytosolic domain of FGFR1 tyrosine kinase (amino acids 456–766) containing three amino acid substitutions (L457V, C488A, and C584S) were conducted as previously described (Mohammadi, M., Schlessinger, J., & Hubbard, S. R. (1996) Cell 86, 577–587). This domain was expressed in Sf9 insect cells using a baculovirus expression vector, and protein was purified using conventional techniques. The LCK tyrosine kinase was expressed in insect cells as an N-terminal deletion starting from amino acid 223 to the end of the protein at amino acid 509. The N-terminus of the protein also had two amino acid substitutions, P223M and C 224D. Kinases were purified using conventional chromatographic methods.
Tyrosine kinase activity was measured using a coupled, continuous spectrophotometric assay, in which production of phosphorylated poly(Glu, Tyr; 4:1) substrate and ADP is coupled to the pyruvate kinase-catalyzed transfer of a phosphate from phosphoenolpyruvate to ADP, with generation of pyruvate and regeneration of ATP. Pyruvate production is in turn coupled to the lactate dehydrogenase-catalyzed reduction of pyruvate to form lactate, with concomitant conversion of NADH to NAD+. Loss of NADH is monitored by measuring absorbance at 340 nm (see e.g., Technikova-Dobrova et al., “Spectrophotometric determination of functional characteristics of protein kinases with coupled enzymatic assay,” FEBS Letters, vol. 292 (1991), pp. 69–72). Enzyme activity was measured in the presence of 200 mM HEPES (pH 7.5), 2 mM phosphoenolpyruvate, 0.3 mM NADH, 20 mM MgCl2, 100 μM ATP, 5 mM DTT, 5.1 or 25 mM poly (Glu,Tyr) 4:1 for P-FGF or P-LCK assays, respectively, and 15 units/mL each of pyruvate kinase and lactate dehydrogenase. Phosphorylated FGF receptor kinase was present at 100 nM and phosphorylated LCK kinase was present at 50 nM. Assays were performed under initial rate conditions at 37° C., and rates were corrected for any background rate measured in the absence of enzyme. Percent inhibition was calculated relative to control enzyme assayed in the presence of 2% (v/v) DMSO.

[1] = HCT 116, MTT, 50% inhibition of growth, read-out: HCT 116 IC50
[2] = HCT 116, MTT, IC90, read-out: HCT 116 IC90
[3] = HCT-116, read-out: HCT 116 IC50 (uM)
[4] = HCT-116, read-out: HCT 116 IC90 (uM)

Sequence of CDK4/cyclin D3 (P11802 2-303 limits assumed): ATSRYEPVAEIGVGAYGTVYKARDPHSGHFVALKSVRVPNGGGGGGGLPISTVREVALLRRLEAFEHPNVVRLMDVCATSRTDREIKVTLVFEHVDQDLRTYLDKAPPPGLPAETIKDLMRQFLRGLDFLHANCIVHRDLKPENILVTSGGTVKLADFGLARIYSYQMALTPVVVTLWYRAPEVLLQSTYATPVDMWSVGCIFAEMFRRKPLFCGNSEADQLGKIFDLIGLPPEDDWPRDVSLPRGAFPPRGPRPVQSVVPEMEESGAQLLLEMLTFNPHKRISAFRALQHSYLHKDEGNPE
Sequence of CDK4/cyclin D3 (P30281 1-264 limits assumed, further chain): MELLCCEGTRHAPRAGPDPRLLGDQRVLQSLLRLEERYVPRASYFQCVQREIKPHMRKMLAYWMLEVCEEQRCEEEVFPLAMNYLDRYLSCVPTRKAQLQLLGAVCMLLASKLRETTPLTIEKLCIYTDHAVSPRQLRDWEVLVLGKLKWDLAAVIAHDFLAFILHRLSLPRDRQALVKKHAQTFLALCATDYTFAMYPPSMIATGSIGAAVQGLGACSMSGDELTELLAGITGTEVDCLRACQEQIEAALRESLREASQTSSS
T2 sequence (P11362 456-766 L457V/C488A/C584S): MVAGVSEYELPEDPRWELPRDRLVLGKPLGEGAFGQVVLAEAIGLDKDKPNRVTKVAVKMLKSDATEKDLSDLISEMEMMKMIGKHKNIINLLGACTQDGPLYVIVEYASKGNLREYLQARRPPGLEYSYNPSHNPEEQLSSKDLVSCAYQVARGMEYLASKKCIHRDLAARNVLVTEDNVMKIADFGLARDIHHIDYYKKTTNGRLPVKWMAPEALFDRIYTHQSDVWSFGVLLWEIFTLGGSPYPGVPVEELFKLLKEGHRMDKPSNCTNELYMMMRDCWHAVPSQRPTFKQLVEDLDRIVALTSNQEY

| SMILES | Ki (CDK2/cyclin A) [nM] | IC50 (HCT 116 cell line; [1]) [µM] | IC90 (HCT 116 cell line; [2]) [µM] | Ki (CDK4/cyclin D3) [nM] | IC50 (HCT 116 cell line; [3]) [µM] | IC90 (HCT 116 cell line; [4]) [µM] | inhibition at 1 µM (FGFR1 tyrosine kinase) [%] |
| --- | --- | --- | --- | --- | --- | --- | --- |
| CC(C)(C)NCc1cccc2[nH]c(-c3n[nH]c4ccc(-c5cncc6ccccc56)cc34)nc12 [Example 39, tert-Butyl-[2-(5-isoquinolin-4-yl-1H-indazol-3-yl)-1H-benzoimidazol-4-ylmethyl]-amine] | 1.1 | 0.018 | 0.06 | 9 | – | – | – |
| C(=N\n1cccc1)/c1n[nH]c2ccc(-c3cncc4ccccc34)cc12 [Example 79, (5-Isoquinolin-4-yl-1H-indazol-3-ylmethylene)-pyrrol-1-yl-amine] | 0.42 | 0.5 | 0.5 | 2.2 | – | – | – |
| Cc1nc(-c2n[nH]c3ccc(-c4cncc5ccccc45)cc23)[nH]c1-c1ccccc1 [Example 67, 4-[3-(4-Methyl-5-phenyl-1H-imidazol-2-yl)-1H-indazol-5-yl]-isoquinoline] | 16 | – | – | 220 | 2 | 4.7 | – |
| c1ccc2c(-c3ccc4[nH]nc(-c5nc6c([nH]5)CCCC6)c4c3)cncc2c1 [Example 66, 4-[3-(4,5,6,7-Tetrahydro-1H-benzoimidazol-2-yl)-1H-indazol-5-yl]-isoquinoline] | 1 | 0.49 | 1.6 | 55 | – | – | – |
| CC(=O)N1CCCc2c(-c3ccc4[nH]nc(-c5nc6ccccc6[nH]5)c4c3)cncc21 [Example 63, 1-{5-[3-(1H-Benzoimidazol-2yl)-1H-indazol-5-yl]-3,4-dihydro-2H-[1,7]naphthyridin-1-yl}-ethanone] | 1.2 | 0.43 | 1.3 | 220 | – | – | – |
| Cc1c(-c2ccc3[nH]nc(-c4nc5ccccc5[nH]4)c3c2)ccc(CCCO)c1O [Example 26, 3-[3-(1H-Benzoimidazol-2-yl)-1H-indazol-5-yl]-6-(3-hydroxy-propyl)-2-methyl-phenol] | 72 | 2.8 | 5 | 83 | – | – | – |
| CC(=O)Nc1cccc2c(-c3ccc4[nH]nc(-c5nc6ccccc6[nH]5)c4c3)cncc12 [Example 56, N-{4-[3-(1H-Benzoimidazol-2-yl)1H-indazol-5-yl]-isoquinolin-8-yl}-acetamide] | 1 | 0.48 | 1.3 | 36 | – | – | – |
| Cc1c(CNc2cccnc2)cncc1-c1ccc2[nH]nc(-c3nc4ccccc4[nH]3)c2c1 [Example 93, {5-[3-(1H-Benzoimidazol-2-yl)-1H-indazol-5-yl]-4-methyl-pyridin-3-ylmethyl}-pyridin-3-yl-amine] | 0.61 | 0.32 | > 0.5 | 1.9 | – | – | – |
| C(=C\c1n[nH]c2ccc(-c3ccnc4ccccc34)cc12)/c1ccccc1 [Example 17, 4-[3-((E)-Styryl)-1H-indazol-5-yl]-quinoline] | 1400 | 3.2 | 5 | – | – | – | 42.6 |
| Cc1cncc(-c2ccc3[nH]nc(-c4nc5ccccc5[nH]4)c3c2)c1C [Example 75] | 1.4 | 0.4 | 1.3 | 9.8 | – | – | – |
| c1ccc(CNc2cccc3c(-c4ccc5[nH]nc(-c6nc7ccccc7[nH]6)c5c4)cncc23)cc1 [Example 57] | 37 | – | – | 650 | 2 | 5 | – |
| CNC(C)c1cccc2[nH]c(-c3n[nH]c4ccc(-c5cncc6ccccc56)cc34)nc12 (stereo not shown) [Example 90, {1-[2-(5-Isoquinolin-4-yl-1H-indazol-3-yl)-1H-benzoimidazol-4-yl]-ethyl}-methyl-amine] | 0.3 | 0.03 | 0.12 | 0.09 | – | – | – |
| Cc1c(-c2ccc3[nH]nc(-c4nc5ccccc5[nH]4)c3c2)cncc1-c1ccccn1 [Example 62] | 3.7 | 1 | 2.4 | 50 | – | – | – |
| Cc1c(CNCc2ccccc2)cncc1-c1ccc2[nH]nc(-c3nc4ccccc4[nH]3)c2c1 [Example 88, {5-[3-(1H-Benzoimidazol-2-yl)-1H-indazol-5-yl]-4-methyl-pyridin-3-ylmethyl}-benzyl-amine] | 1.4 | > 0.5 | > 0.5 | 3.5 | – | – | – |
| Cc1c(CNCCO)cncc1-c1ccc2[nH]nc(-c3nc4ccccc4[nH]3)c2c1 [Example 89, 2-({5-[3-(1H-Benzoimidazol-2-yl)-1H-indazol-5-yl]-4-methyl-pyridin-3-ylmethyl}-amino)-ethanol] | 0.94 | 0.15 | 0.25 | 1 | – | – | – |
| Cc1c(CNC(C)C)cncc1-c1ccc2[nH]nc(-c3nc4ccccc4[nH]3)c2c1 [Example 78, {5-[3-(1H-Benzoimidazol-2-yl)-1H-indazol-5-yl]-4-methyl-pyridin-3-ylmethyl}-isopropyl-amine] | 0.7 | – | – | 5.5 | 0.085 | 0.22 | – |
